Source: patent publication US7468253B2, “Method for multiple chemokine receptor screening for antagonists using RAM assay” (Chemocentryx, Inc., priority 2001, dated 2008)

Legend:
CCR2 = target: T1, CCR2 (Homo sapiens, UniProt P41597); experiment: Conventional cell migration assay, MCP-1 dose response in THP-1 cells; assay type: cell-based; details: 90 minutes, FIG. 10
T1 construct: THP-1 cells expressing cell surface CCR1 and CCR2; host or cells: THP-1 (human monocytic)
T1 sequence (P41597 1-360 isoform P41597-2): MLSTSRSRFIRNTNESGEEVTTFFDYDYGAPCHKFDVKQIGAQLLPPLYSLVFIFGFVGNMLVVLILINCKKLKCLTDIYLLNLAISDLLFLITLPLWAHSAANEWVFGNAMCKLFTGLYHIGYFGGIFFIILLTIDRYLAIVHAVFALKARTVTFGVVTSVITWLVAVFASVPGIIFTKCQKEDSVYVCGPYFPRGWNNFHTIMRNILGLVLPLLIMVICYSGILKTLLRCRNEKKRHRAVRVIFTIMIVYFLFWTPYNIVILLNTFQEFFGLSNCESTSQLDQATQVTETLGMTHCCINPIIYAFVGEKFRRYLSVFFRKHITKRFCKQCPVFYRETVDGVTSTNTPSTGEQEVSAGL
Procedure: (§1) To obtain a dose response curve for THP-1 cells expressing cell surface CCR1 and CCR2, a conventional cell migration assay was used (Bacon et al., 1988; Penfold et al., 1999). Cells were harvested by centrifugation and then resuspended in cell migration buffer (Hank's balanced salt solution (HBSS)/0.1% bovine serum albumin (BSA)) at 0.1×10^6 cells per well. The CCR1 and CCR2 ligands MIP-1α and MCP-1, respectively, were prepared in the concentration series (10 nM to 10 μM) by serial dilution in cell migration buffer. At low concentrations, MIP-1α and MCP-1 activate cell migration of CCR1 and CCR2 bearing activated cells, respectively.
(§2) MIP-1α and MCP-1 were loaded in the bottom chamber of a ChemoTx® cell migration apparatus (5 μm pore polycarbonate polyvinylpyrrolidone-coated filters (Neuroprobe; Gaithersburg, Md.); 29 μl/well) and 20 μl of cell suspension (100K cell per well) was placed in the upper chamber. The cells were incubated at 37° C. for 90 minutes. The assay was terminated by removing the cells from the upper chamber and membrane surface using a rubber scraper. The cells that migrated to the lower chamber were quantified by CyQuant assay (Molecular Probes; Eugene, Oreg.), a fluorescent dye method that measures nucleic acid content. […]

THP-1 cells [1] = experiment: Effect of full RAM concentration of MCP-1 on MIP-1α-induced migration; assay type: cell-based, human; details: 100 nM MCP-1, THP-1 cells, FIG. 11B
Procedure: An effect of 100 nM of MCP-1 on MIP-1α was studied by comparing migration levels of THP-1 cells as activated by MIP-1α with THP-1 cell migration levels as activated by incubation with MIP-1α and 100 nM MCP-1.
(§3) 100 nM MCP-1 with MIP-1α at various concentrations were loaded in the bottom chamber of a ChemoTx® cell migration apparatus (5 μm pore polycarbonate polyvinylpyrrolidone-coated filters (Neuroprobe; Gaithersburg, Md.); 29 μl/well) and 20 μl of cell suspension (100K cell per well) was placed in the upper chamber. The cells were incubated at 37° C. for 90 minutes. The assay was terminated by removing the cells from the upper chamber and membrane surface using a rubber scraper. The cells that migrated to the lower chamber were quantified by CyQuant assay (Molecular Probes; Eugene, Oreg.), a fluorescent dye method that measures nucleic acid content.

CCR1 = target: T2, CCR1 (Homo sapiens, UniProt P32246); experiment: Conventional cell migration assay, MIP-1α dose response in THP-1 cells; assay type: cell-based; details: 90 minutes, FIG. 10
T2 construct: THP-1 cells expressing cell surface CCR1 and CCR2; host or cells: THP-1 (human monocytic)
T2 sequence (P32246 1-355): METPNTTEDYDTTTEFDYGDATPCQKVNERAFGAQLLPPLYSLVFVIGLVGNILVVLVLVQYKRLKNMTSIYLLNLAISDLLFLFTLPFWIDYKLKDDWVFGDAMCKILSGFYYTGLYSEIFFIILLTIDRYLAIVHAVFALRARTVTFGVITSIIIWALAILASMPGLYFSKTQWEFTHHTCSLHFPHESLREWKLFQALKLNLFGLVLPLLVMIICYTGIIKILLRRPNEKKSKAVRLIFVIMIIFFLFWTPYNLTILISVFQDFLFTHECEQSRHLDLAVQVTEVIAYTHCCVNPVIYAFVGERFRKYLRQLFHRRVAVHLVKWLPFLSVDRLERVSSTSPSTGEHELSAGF
Procedure: as §1, §2

THP-1 cells [2] = experiment: Effect of full RAM concentration of MIP-1α on MCP-1-induced migration; assay type: cell-based, human; details: 100 nM MIP-1α, FIG. 11A
Procedure: An effect of 100 nM of MIP-1α on MCP-1 was studied by comparing migration levels of THP-1 cells as activated by MCP-1 with THP-1 cell migration levels as activated by incubation with MCP-1 and 100 nM MIP-1α.
as §3, with “nM MIP-1α with” for “nM”, “MCP-1” for “MCP-1 with MIP-1α”

CXCR4 = target: T3, CXCR4 (Homo sapiens, UniProt P61073); experiment: Conventional cell migration assay, SDF-1α dose response (determining inhibitory concentration); assay type: cell-based; details: CXCR4-bearing activated lymphocytes, 150 minutes
T3 construct: endogenous in cells
T3 sequence (P61073 whole entry): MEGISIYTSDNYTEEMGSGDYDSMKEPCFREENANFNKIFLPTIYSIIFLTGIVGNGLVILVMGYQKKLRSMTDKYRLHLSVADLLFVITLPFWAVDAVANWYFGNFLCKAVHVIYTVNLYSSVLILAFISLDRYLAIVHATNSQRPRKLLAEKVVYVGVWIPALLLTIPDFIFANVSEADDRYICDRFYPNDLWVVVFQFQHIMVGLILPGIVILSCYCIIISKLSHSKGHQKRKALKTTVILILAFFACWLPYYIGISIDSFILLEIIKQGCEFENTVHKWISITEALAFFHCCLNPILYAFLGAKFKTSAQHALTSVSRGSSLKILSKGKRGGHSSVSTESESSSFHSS
Procedure: To obtain a dose response curve for activated lymphocytes expressing cell surface CXCR4, a conventional cell migration assay was used (Bacon et al., 1988; Penfold et al., 1999). The activated lymphocytes were prepared by culturing lymphocytes in the presence of interleukin-2 (IL-2) and phytohemeagglutinin (PHA). To isolate peripheral blood lymphocytes (i.e., a thin layer of white blood cells called the buffy coat), blood samples from the Stanford blood center were centrifuged for 10 minutes at 1200 rpm leaving a concentrated fraction containing predominantly white blood cellular fraction. Next, peripheral blood mononuclear cells (PBMC) were prepared by the standard Ficoll-Pague (Amersham Biosciences) gradient centrifugation method. Following the centrifugation, PBMC were removed and resuspended in MACS (Dulbecco's Phosphate Buffered Saline, DPBS; 1% Bovine Serum Albumin, BSA) buffer. After removal of the PMBCs, the monocytes were separated by a CD14 positive selection column mounted on an AutoMac (Multenyi Biotech). […]
The CXCR4 ligand stromal-derived factor (SDF-1α) was prepared in a concentration series (0.1 nM to […]) by serial dilution in cell migration buffer. […] The cells that migrated to the lower chamber were quantified by the CyQuant assay (Molecular Probes; Eugene, Oreg.), a fluorescent dye method that measures nucleic acid content. […]

For “MCP-1: CCR2 ligand, chemokine purchased from PeproTech”, the “concentration determined to be completely inhibitory for cell migration” value (CCR2) was 150 nM and the “effect on MIP-1α-induced cell migration” value (THP-1 cells [1]) was “no significant effect”.

With “MIP-1α: CCR1 ligand, chemokine purchased from PeproTech” the “concentration determined to be completely inhibitory for cell migration” value (CCR1) was 150 nM and the “effect on MCP-1-induced cell migration” value (THP-1 cells [2]) was “no significant effect”.

In the case of SDF-1α, the “concentration determined to be completely inhibitory for cell migration” value (CXCR4) is reported as 1 µM.
